# Test results reported in patent US12448388B2, “PRMT5 inhibitors and uses thereof” (Gilead Sciences, Inc., priority 2023, dated 2025).
# Like-named read-outs stand apart in the source and are kept apart here.
# What was measured:
# [1] = tested on: HCT116 MTAP-deleted cell lines; experiment: Cell viability assay (CellTiter-Glo, 7 days), HCT116 MTAP-deleted; type: cell-based; details: Homo sapiens, HCT-116, HCT116 MTAP-deleted, class symbols, read-out: CC50
# Procedure, shortened: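 CC50 values come from 7-day CellTiter-Glo viability measurements on cells exposed to a dose range of PRMT5 inhibitors dispensed from DMSO stocks.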
# [2] = tested on: Symmetric Di-methyl Arginine (SDMA) signal (PRMT5 inhibition) in HCT116 MTAP-deleted cells; experiment: Symmetric di-methyl arginine image-based high content screen assay (SDMA assay), HCT116 MTAP-deleted; type: cell-based; details: for EC50: Homo sapiens, HCT-116, HCT116 MTAP-deleted, class symbols
# Procedure: Symmetric di-methyl arginine image-based high content screen assay (SDMA assay) was performed in HCT116 WT and HCT116 MTAP-deleted cell lines to measure Symmetric Di-methyl Arginine (SDMA) signal reduction after selective PRMT5 inhibition in the MTAP-deleted cells. Control compounds were analyzed in parallel each time for quality control.
# Briefly, the same compound plates were generated as mentioned in the previous section of Cell viability assay on Day −1. On Day 0, 800 HCT WT or HCT116 MTAP-deleted cell were seeded in compound-containing 384 well plates (50 μl per well) in RPMI 1640 media supplemented with 10% heat inactivated fetal bovine serum, Glutamax and penicillin streptomycin using EL460 liquid dispenser 5 μl cassette (BioTek, part no. 7170011). After equilibrating the plate at room temperature, the cells were incubated for 3 days inside the sealed incubator set at 37° C. with 90% humidity and 5% C02.
# On Day 3, the cells were fixed by adding 45 μl of 8% neutralized formalin solution to each well using EL460 liquid dispenser 5 μl cassette and the cells were incubated for 30 minutes at room temperature. The formalin solution was washed off with […] phosphate buffered saline (dPBS), the 0.1% Triton X-100 solution in dPBS was used to permeabilize the cells for 15 minutes at room temperature. The triton solution was aspirated, 50 μl of Odyssey Blocking buffer +0.05% Tween20 was added and the plate was incubated at room temperature for 30 minutes.
# The blocking solution was removed, a 20 μl of SDMA antibody (Cell Signaling Technology, Cat no. 13222) diluted 1:500 in Odyssey Blocking buffer +0.05% Tween20 was added and the plate was incubated at 4° C. overnight. Next day, the primary SDME antibody solution was washed from each well three times with 0.05% Tween20 in dPBS (PBST).
# A 30 μl of the secondary antibody, a Goat anti-Rabbit Alexa Fluor Plus 488 (Invitrogen, Cat no. PIA32731) was diluted 1:500 in Odyssey Blocking buffer +0.05% Tween20 and the plate was incubated for 1.5 hours in dark at room temperature. The secondary antibody solution was removed, 30 μl of 5 mg/ml DAPI solution diluted 1:2000 in dPBS was added and the plate was incubated for 30 minutes in dark at room temperature. The DAPI solution was aspirated and the wells were washed six times with dPBS.
# The SDMA signal and DAPI signal per cell were counted using a Cellomics CX7 LZR instrument reading under 488 and 405 nm laser, respectively. The SDMA signal was quantified by mean average intensity per cell from Alexa Fluor Plus 488 after the cell was defined with DAPI. The EC50 values for each compound after 3 days of treatment were calculated using 4 parameter non-linear logistical curve fit.
# For the SDMA assay i.e. EC50 shown in Table 3A: A: EC50≤1 nM, B: 1 nM<EC50≤5 nM, C: EC50>5 nM.
# [3] = HCT116 WT vs HCT116 MTAP-deleted
# [4] = HCT116 WT versus HCT116 MTAP-deleted
Compound,CC50 ([1]; cell viability assay) [nM],"EC50 selectivity [2, 3]",EC50 [2] [nM],CC50 ([1]; cell viability) [nM],"EC50 selectivity [2, 4]"
"CN(C(=O)c1cc2c(cc1F)nc(N)c1cncn12)[C@@H]1COc2cc(C#CC3(C)COC3)ccc21 [Ff-516, (S)-4-amino-7-fluoro-N-methyl-N-(6-((3-methyloxetan-3-yl)ethynyl)-2,3-dihydrobenzofuran-3-yl)imidazo[1,5-a]quinoxaline-8-carboxamide]",< 100,337,1 to 5,,
"Nc1nc2ccc(C(=O)N3C[C@H](F)C[C@@H]4Oc5cc(C(F)(F)F)ccc5[C@@H]43)cc2n2cncc12 (single isomer, unassigned) [Ff-681]",< 100,313,≤ 1,,
"Cc1ncc2c(N)nc3ccc(C(=O)N(Cc4ccc(C(F)(F)F)cc4F)N(C)C(=O)C4CC4)cc3n12 [Fb-4, 4-amino-N′-(cyclopropanecarbonyl)-N-(2-fluoro-4-(trifluoromethyl)benzyl)-N′,1-dimethylimidazo[1,5-a]quinoxaline-8-carbohydrazide]",,,1 to 5,100 to 1000,249
"Cc1ncn2c1c(N)nc1cnc(C(=O)N3CCC4(CC4)[C@@H]4Oc5cc(C(F)(F)F)ccc5[C@@H]43)cc12 [Ff-678, (4-amino-3-methylimidazo[1,5-a]pyrido[3,4-e]pyrazin-8-yl)((4aS,9bS)-7-(trifluoromethyl)-2,3,4a,9b-tetrahydro-1H-spiro[benzofuro[3,2-b]pyridine-4,1′-cyclopropan]-1-yl)methanone]",< 100,263,1 to 5,,
"Nc1nc2cc(F)c(C(=O)N3C[C@H](F)CC4Oc5cc(OC(F)(F)F)ccc5C43)cc2n2cncc12 (mixture of isomers) [Fg-57, rac-(4-amino-7-fluoroimidazo[1,5-a]quinoxalin-8-yl)((3R,4aS,9bS)-3-fluoro-7-(trifluoromethoxy)-3,4,4a,9b-tetrahydrobenzofuro[3,2-b]pyridin-1(2H)-yl)methanone]",< 100,137,≤ 1,,
"CN(C(=O)c1cc2c(cc1F)nc(N)c1cncn12)[C@@H](c1ccc(C(F)(F)F)cc1F)C(F)F [Fb-8, (S)-4-amino-N-(2,2-difluoro-1-(2-fluoro-4-(trifluoromethyl)phenyl)ethyl)-7-fluoro-N-methylimidazo[1,5-a]quinoxaline-8-carboxamide]",,,≤ 1,< 100,224
"CN(C(=O)c1cc2c(cc1F)nc(N)c1cncn12)[C@@H]1COc2cc(F)ccc21 [Ff-568, (S)-4-amino-N-(6-fluoro-2,3-dihydrobenzofuran-3-yl)-7-fluoro-N-methylimidazo[1,5-a]quinoxaline-8-carboxamide]",100 to 1000,457,> 5,,
"CN(C(=O)c1ccc2nc(N)c3cncn3c2c1)[C@@H]1COc2cc(C3CC3)ccc21 [Ff-548, (S)-4-amino-N-(6-cyclopropyl-2,3-dihydrobenzofuran-3-yl)-N-methylimidazo[1,5-a]quinoxaline-8-carboxamide]",100 to 1000,102,1 to 5,,
"CN(C(=O)c1cc2c(cc1Br)nc(N)c1cncn12)[C@@H]1COc2cc(C(F)(F)F)ccc21 [Fg-48, (S)-4-amino-7-bromo-N-methyl-N-(6-(trifluoromethyl)-2,3-dihydrobenzofuran-3-yl)imidazo[1,5-a]quinoxaline-8-carboxamide]",< 100,94,≤ 1,,
"Nc1nc2ccc(C(=O)N(Cc3ccc(C(F)(F)F)cn3)C34CC(C3)C4)cc2n2cncc12 [Fe-1, 4-amino-N-(bicyclo[1.1.1]pentan-1-yl)-N-((5-(trifluoromethyl)pyridin-2-yl)methyl)imidazo[1,5-a]quinoxaline-8-carboxamide]",,,1 to 5,< 100,62
"C[C@H]1CN(C(=O)c2cc3c(cc2Cl)nc(N)c2cncn23)[C@@H](c2ccc(C(F)(F)F)cn2)CO1 [Ff-138, (4-amino-7-chloroimidazo[1,5-a]quinoxalin-8-yl)((2S,5S)-2-methyl-5-(5-(trifluoromethyl)pyridin-2-yl)morpholino)methanone]",,,≤ 1,< 100,20
"Nc1nc2cc(F)c(C(=O)N3CC4CC(C3)c3ccccc34)cc2n2cncc12 [Ff-62, (4-amino-7-fluoroimidazo[1,5-a]quinoxalin-8-yl)(1,2,4,5-tetrahydro-3H-1,5-methanobenzo[d]azepin-3-yl)methanone]",,,> 5,> 1000,178
"C[C@H](c1ncccn1)N(Cc1ccc(C(F)(F)F)cn1)C(=O)c1ccc2nc(N)c3cncn3c2c1 [Fe-2, (R)-4-amino-N-(1-(pyrimidin-2-yl)ethyl)-N-((5-(trifluoromethyl)pyridin-2-yl)methyl)imidazo[1,5-a]quinoxaline-8-carboxamide]",,,≤ 1,< 100,5
"Cc1ncc2c(N)nc3ccc(C(=O)N(Cc4ccc(C(F)(F)F)cn4)N4CCCC4=O)cc3n12 [Fc-1, 4-amino-1-methyl-N-(2-oxopyrrolidin-1-yl)-N-[[5-(trifluoromethyl)-2-pyridyl]methyl]imid-azo[1,5-a]quinoxaline-8-carboxamide]",,,1 to 5,100 to 1000,171
"Nc1nc2cc(Br)c(C(=O)N3CCC[C@@H]4Oc5cc(C(F)(F)F)ccc5[C@@H]43)cc2n2cncc12 [Fg-50, (4-amino-7-bromoimidazo[1,5-a]quinoxalin-8-yl)((4aS,9bS)-7-(trifluoromethyl)-3,4,4a,9b-tetrahydrobenzofuro[3,2-b]pyridin-1(2H)-yl)methanone]",< 100,47,≤ 1,,
"Nc1nc2cnc(C(=O)N3CCC[C@@H]4Cc5cc(C(F)(F)F)ccc5[C@@H]43)cc2n2cncc12 (single isomer, unassigned) [Ff-687]",< 100,325,≤ 1,,
"Nc1nc2cc(Cl)c(C(=O)N3CCOC[C@@H]3c3ccc(C(F)(F)F)cc3)cc2n2cncc12 [Ff-289, (S)-(4-amino-7-chloroimidazo[1,5-a]quinoxalin-8-yl)(3-(4-(trifluoromethyl)phenyl)morpholino)methanone]",,,≤ 1,< 100,88
"CN(C(=O)c1cc2c(cc1F)nc(N)c1cncn12)C1CCc2nc(C(F)(F)F)ccc21 (stereo not drawn) [Ff-13, 4-amino-7-fluoro-N-methyl-N-(2-(trifluoromethyl)-6,7-dihydro-5H-cyclopenta[b]pyridin-5-yl)imidazo[1,5-a]quinoxaline-8-carboxamide]",,,≤ 1,< 100,176
"Cc1ncn2c(N)nc3cc(F)c(C(=O)N(Cc4ccc(C(F)(F)F)cn4)[C@H](C)c4ncccn4)cc3c12 [Ff-54, (R)-5-amino-8-fluoro-1-methyl-N-(1-(pyrimidin-2-yl)ethyl)-N-((5-(trifluoromethyl)pyridin-2-yl)methyl)imidazo[1,5-c]quinazoline-9-carboxamide]",,,1 to 5,< 100,95
"C[C@H]1CN(C(=O)c2cc3c(cc2F)nc(N)c2cncn23)[C@H]2c3cc(F)c(C4CC4)cc3C[C@H]2O1 [Ff-201, (4-amino-7-fluoroimidazo[1,5-a]quinoxalin-8-yl)((2S,4aS,9aR)-7-cyclopropyl-6-fluoro-2-methyl-2,3,9,9a-tetrahydroindeno[2,1-b][1,4]oxazin-4(4aH)-yl)methanone]",,,1 to 5,< 100,58
